Assays:
Oct4 promoter = conditions: combined TSA and 5Aza 2′ deoxycytidine treatment of TE; cited from earlier work
hESC = test: Chromatin mobility by time-lapse confocal microscopy of GFP-H2B transfected hESC; type: cell-based, human; conditions: hESC transfected with GFP-H2B; data not shown
Method: Chromatin movement was further analyzed in hESC transfected with the fluorescent histone GFP-H2B (FIG. 4). Single confocal slices at 0.4 μm spacing (FIG. 4A) show density variations, including low-density voids (arrow in FIG. 4A, 0.4 μm). The movement of cell-specific bright chromatin densities was analyzed by overlaying images at 0, 5 and 10 min, assigned to the blue, green and red channels respectively (FIGS. 4B-F) and by vector analysis where movement of bright spots was traced with a yellow line at 1 min intervals and red arrows were placed at the last position of the spot (FIG. 4G). Different kinds of nuclear movement were detected including internal mixing of chromatin, indicated by movement of bright chromatin domains without envelope deformation (pluripotent hESC, FIG. 4B), deformation of the envelope and chromatin (pluripotent hESC, FIG. 4C), and multidirectional streaming of chromatin (2 day differentiated hESC, FIG. 4D). Long-range coordination of chromatin movement was infrequent in hESC and prevalent, albeit at slower speeds, in differentiated cells. An increase in coherence length was most noticeable in 5-week differentiated hESC (FIG. 4E). In contrast, endothelial cells show small amplitude, sub-em tethered stochastic movement (FIG. 4F) as reported previously for somatic cells (Marshall, Straight et al. 1997). […]

HDAC1 = HDAC1 immunostaining (confocal microscopy) in HeLa cells; conditions: FIG. 15

SMILES | Oct4 expression (Oct4 promoter) | Oct4 promoter methylation (Oct4 promoter) | effect on chromatin mobility (hESC) | HDAC1 staining (HDAC1)
Nc1ncn([C@H]2C[C@H](O)[C@@H](CO)O2)c(=O)n1 [5Aza 2′ deoxycytidine] | induces Oct4 expression | hypomethylates the Oct4 promoter | – | –
C=C1[C@@H](C)[C@H]2[C@H](Cc3ccccc3)NC(=O)[C@]23[C@H](OC(C)=O)/C=C/[C@@](C)(O)C(=O)[C@@H](C)C/C=C/[C@H]3[C@@H]1O [cytochalasin D] | – | – | slight acceleration of chromatin mobility | –
CC(/C=C/C(=O)NO)=C\[C@@H](C)C(=O)c1ccc(N(C)C)cc1 [TSA] | induces Oct4 expression | hypomethylates the Oct4 promoter | – | complete absence of HDAC1 staining
COC(=O)Nc1nc2ccc(C(=O)c3cccs3)cc2[nH]1 [nocodazole] | – | – | no effect on chromatin mobility | –
